Test [1] deals with anti-OVA IgM and IgG antibodies. The test is described as follows: OVA evaluation system: adjuvant activity in antibody titer in mice. Format: in vivo. To be noted: for IgM and IgG antibody titers vs PBS or DMSO control / adjuvant effect among statin drugs: statins with OVA, soles injection; for IgM and IgG antibody titers vs PBS or DMSO control: Day 7 and Day 14. The procedure: OVA evaluation system was used to determine adjuvant activity in antibody titer.
Mice of C57B/6 strain were used. The mice in the experimental group were injected with the obtained mixture of each of the statins and OVA antigen through soles injection, with 20 μl for each mouse. The mice in the control group were injected with a 1:1 mixture of PBS or DMSO (10 μl) and 10 μl OVA antigen (PBS or DMSO is 10 μl, respectively, and the antigen is 10 μl) through soles injection, with 20 μl for each mouse. On Day 7 and Day 14 after immunization, blood was taken from the mice's orbits, with 100 μl was taken from each mouse. The obtained blood was left at 4° C. overnight, and centrifuged at 6000 rpm for 8 min. The supernatant serum was removed and the titers of anti-OVA IgM and IgG antibodies in the serum were determined.
Test of the OVA antibody titer: The OVA protein was diluted to a concentration of 2 μg/ml with a carbonate solution of pH 9.6, coated in a 96-well ELISA plate at 50 μl per well, and left at 4° C. overnight. The ELISA plate was washed five times with PBS containing 0.05% Tween 20, blocked with 1% BSA solution at 200 μl per well, and incubated at room temperature for 2 h. The ELISA plate was washed five times with PBST (Phosphate Buffered Saline with Tween), a 2-fold serial dilution of the mouse serum after immunized with OVA was added at 50 μl per well and incubated at room temperature for 2 h. After the ELISA plate was washed five times with PBST, HRP (horseradish peroxidase)-labeled goat-anti-mouse IgM or IgG antibody was added and incubated at room temperature for 45 min. The ELISA plate was washed five times with PBST, and a color developing solution of sodium citrate OPD (o-phenylenediamine) was added. After 10 min of color development in the dark, sulfuric acid was added to terminate the reaction. The reading was performed with ELIASA OD490. The maximum serum dilution factor, when the ratio of light absorptions of the experimental group to the control group was >2.0, was the titer of the anti-OVA antibody in the serum.
Each test compound was formulated at a concentration of 2 mg/ml and the concentration of OVA antigen was 2 mg/ml. Each compound was mixed with OVA at 1:1. Each C57B/6 mouse in the experimental group was injected with 100 μl of the mixture (containing 50 μl of the antigen and 50 μl of the compound) by intramuscular injection at the right thigh. On Day 7 and Day 14 after immunization, blood was taken from the mice's orbit, and 100 μl was taken for each mouse. The obtained blood was allowed to stand at 4° C. overnight, and centrifuged at 6000 rpm for 8 min. The supernatant serum was removed, and the titers of anti-OVA IgM and IgG antibodies in the serum were determined.
Method: each of the test compounds (the 10 bisphosphonates as described above) was mixed with the OVE antigen at 1:1, and the concentrations of bisphosphonic acid and OVA were both 10 mg/ml. Mice of C57B/6 strain were used. The mice in the experimental group were injected with the mixture of each of the test compounds and OVA antigen through soles injection, with 20 μl for each mouse, and wherein the amounts of OVA antigen and each of the test compounds were both 100 ug. The mice in the control group were injected with a 1:1 mixture of […] and 10 μl OVA antigen through sole injection. On Day 7 and Day 14 after immunization, blood was taken from the mice's orbits, and 100 μl was taken from each mouse.
The obtained blood was left at 4° C. overnight, and centrifuged at 6000 rpm for 8 min. The supernatant serum was removed, and the titers of anti-OVA IgM and IgG antibodies in the serum were determined.
Method: TH-Z144 and TH-Z145 were prepared at the concentration of 10 mg/ml, the concentration of OVA antigen was also 10 mg/ml, and the compound and the antigen were mixed at 1:1. Mice of C57B/6 strain were used.

Test [2] concerns the target humanized farnesyl pyrophosphate synthase (HsFPPS) (Homo sapiens (Human), UniProt P14324). In words: In vitro HsFPPS enzyme activity assay. It is filed as biochemical. To be noted: for IC50: Example 15 table, read-out: HsFPPS (IC50/μM). The procedure:
The measurement method is briefly described as follows: the expression of HsFPPS with 6 consecutive His at the N-terminus was induced in vitro, collected, and purified by Ni column. An in vitro HsFPPS enzyme activity assay was performed in a 96-well plate with 200 μl of solution per well. The buffer of the system was 25 mM HEPES, 2.5 mM MgCl2, pH 7.4. Using DMAPP and IPP as reaction substrates, the change of the UV value at a wavelength of 360 nm was monitored in real time in a phosphate lyase system. The ORIGIN 8.0 software was used to plot and fit. The IC50 values for the inhibition of FPPS by the TH-Z80 series of compounds were shown in the following table, in micromoles per liter (μM).
HsFPPs with 6 consecutive His at the N-terminus was induced to express in vitro, collected, and purified by Ni column. In vitro HsFPPs enzymatic activity assay was performed in a 96-well plate at 200 μl of solution per well. The buffer of the system was 25 mM HEPES, 2.5 mM MgCl2, pH 7.4. Using DMAPP and IPP as reaction substrates, the changes of UV at 360 nm were monitored in real-time in phosphate lyase system. ORIGIN 8.0 software was used to plot and fit.

The test system of test [3] is Plasmodium falciparum 3D7. The test is described as follows: Test of plasmodium activity (SYBR-GREEN1). Format: cell-based. To be noted: infected erythrocytes, 72 hours; read-out: Malaria (IC50/μM). The procedure: Plasmodium falciparum 3D7 was cultured with […] medium mixed with 10% human O-type blood serum and 25 mM HEPES. The cultivation process was maintained in a carbon dioxide incubator under 5% carbon dioxide. In vitro drug testing experiments were performed on a 96-well plate. The test drug was dissolved in PBS and pre-diluted with complete medium. Infected erythrocytes were cultured in triplicate for 72 hours in 3-fold serial dilutions of drug. Then an equal amount of SYBR-GREEN1 was added to each well. The detection was then performed at 485 nm for excitation light and 538 nm for emitted light. […] ORIGIN 8.0 software was used to plot and fit.

For test [4], the system named is PvGGPPS (geranylgeranyl pyrophosphate synthase from Plasmodium). In words: In vitro PvGGPPS enzymatic activity assay. It is filed as biochemical. To be noted: GPP and IPP substrates. The procedure: PvGGPPs with 6 consecutive His at the N-terminus was induced to express in vitro, collected, and purified by Ni column. In vitro PvGGPPs enzymatic activity assay was performed in a 96-well plate at 200 μl of solution per well. The buffer of the system was 25 mM HEPES, 2.5 mM MgCl2, pH 7.4. Using GPP and IPP as reaction substrates, a 360 nm continuous spectrophotometric detection was performed in a phosphate lyase system. ORIGIN 8.0 software was used to plot and fit.

A further test deals with MDA-MB-231 cells. The test is described as follows: MDA-MB-231 proliferation MTT test. To be noted: 72 hours. Format: cell-based, human. The procedure:
• Drug dissolution: […] The prepared bisphosphonate stock solution was diluted with DMEM complete medium. The maximum concentration was 1 mM. The dilution was performed serially in a ratio of 1:3.2 with a total of 11 concentration gradients; a. MDA-MB-231 cells were digested the day before. Centrifugation was performed at 1000 rmp for 3 min. The cells were counted. The cells were seeded into a 96-well plate at 3000 cells/well in a volume of 100 μl per well and cultured for 14-16 h. It should be noted that the cell count should be accurate, and the amount of cells seeded per well should be consistent. The cell suspension can be gently shaken in the intermittence of plating, or a row of cells were plated and the cell suspension was pipetted gently with a pipette. The speed of pipetting into the 96-well plate with a pipette should not be too fast or too slow, in order to avoid uneven distribution of cells in the plate, affecting the experiments; the wells at the fringe of the 96-well plate will evaporate slightly faster and the concentration of the solution will change slightly faster. Under normal situation, the central 60 wells should be selected for stimulation. Also, the pipetted liquid should be prevented from creating bubbles. b. After the cells had adhered, the liquid in the 96-well plate was pipetted out and discarded. […] c. 72 hours after the action of drug, the prepared MTT solution (immediately before use, a certain amount of MTT powder was weighed and dissolved in PBS at 5 mg/ml, under dark, filter with 0.22 filter membrane) was added directly to each well with 20 μl per well and continued to culture for 4 hours; d. The filter paper (which can be replaced by an absorbent paper) was laid, and the plate was inverted gently (be careful to prevent the crystal in the well from dropping). After the liquid in the wells was removed, 150 μl of DMSO was added to dissolve the crystals, and the mixture was shaken thoroughly with a shaker for a period of time just to dissolve the crystals. The absorbance (OD value) of each well was measured at 570 nm with ELIASA. The mean value of blank control was calculated as OD Blank. OD value for each well=OD measured-OD Blank. ODNT mean value was calculated. […] Mean and standard error were then calculated. The mean and standard error of each group of drug concentration (uM) and corresponding drug inhibition rate were fitted by Graph Prism software to obtain the IC50 of the drug.

Setting [5] is: o-aminopyridine bisphosphonic acid compounds, read-out: IC50 (inhibition of FPPS).
Where [6] appears, read: TH-Z80 series, DMAPP and IPP substrates, pH 7.4, read-out: IC50 for inhibition of FPPS.

Each structure is given as a SMILES string. pIC50: −log10 of the molar value. Read-outs that look alike come from different tables or passages of the source.

Chain of humanized farnesyl pyrophosphate synthase (HsFPPS) (P14324 whole entry, looked up): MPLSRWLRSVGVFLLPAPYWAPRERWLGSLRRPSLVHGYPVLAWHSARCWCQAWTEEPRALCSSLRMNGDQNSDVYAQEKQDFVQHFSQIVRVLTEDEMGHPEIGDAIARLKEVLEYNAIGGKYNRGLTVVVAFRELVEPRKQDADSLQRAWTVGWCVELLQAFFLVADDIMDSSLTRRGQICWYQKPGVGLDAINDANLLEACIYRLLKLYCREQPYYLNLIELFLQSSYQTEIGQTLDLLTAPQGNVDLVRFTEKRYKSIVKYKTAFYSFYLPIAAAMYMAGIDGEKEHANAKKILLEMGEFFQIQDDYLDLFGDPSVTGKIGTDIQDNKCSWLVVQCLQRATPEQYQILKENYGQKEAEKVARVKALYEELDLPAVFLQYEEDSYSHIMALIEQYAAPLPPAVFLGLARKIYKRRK

As to `O=C(O)C[C@H](O)C[C@H](O)/C=C/c1c(C2CC2)nc2ccccc2c1-c1ccc(F)cc1` [pitavastatin, reference compound], the “IgM and IgG antibody titers vs PBS or DMSO control” value in test [1] is on record as “significantly higher titers”.

Take `CC(=C\C(=O)O)/C=C(\C)C[C@H](C)CCCC[C@H]1OC(=O)[C@@H]1CO` [Hymeglusin, 11-[3R-(hydroxymethyl)-4-oxo-2R-oxetanyl]-3,5,7R-trimethyl-2E,4E-undecadienoic acid, reference compound]: in test [1] (100 μg, intramuscular, fourteen days after immunization), the “IgG antibody titer vs PBS control” value is given as “significantly higher titers”.

For the compound `CC(C)n1c(/C=C/C(O)CC(O)CC(=O)O)c(-c2ccc(F)cc2)c2ccccc21` (stereo not drawn) [fluvastatin, reference compound], the “IgM and IgG antibody titers vs PBS or DMSO control” value in test [1] is listed as “significantly higher titers”.

With `CC(C)c1nc(N(C)S(C)(=O)=O)nc(-c2ccc(F)cc2)c1/C=C/[C@@H](O)C[C@@H](O)CC(=O)O` [rosuvastatin, reference compound], the “IgM and IgG antibody titers vs PBS or DMSO control” value in test [1] is on record as “significantly higher titers”.

For the compound `NC(=O)c1cc(COc2ccnc(NC(P(=O)(O)O)P(=O)(O)O)c2)ccn1` [TH-Z109], the pIC50 in test [2] (setting [5]) was 6.19.

`CCCCCCOc1ccn2c(CC(O)(P(=O)(O)O)P(=O)(O)O)cnc2c1` [TH-Z97, (1-hydroxy-2-(7-n-hexyloxyimidazo[1,2-a]pyridin-3-yl)ethane-1,1-diyl)bisphosphonic acid]: the “IgG antibody titer vs PBS control” value in test [1] (Day 7 and Day 14, OVA) is “significantly higher titers”. The pIC50 in test [2] was 7.22.

Turning to `CC[C@H](C)C(=O)O[C@H]1CCC=C2C=C[C@H](C)[C@H](CC[C@@H]3C[C@@H](O)CC(=O)O3)[C@H]21` [mevastatin, reference compound], in test [1], the “adjuvant effect among statin drugs” value is recorded as “most significant adjuvant effects”; the “IgM and IgG antibody titers vs PBS or DMSO control” value is “significantly higher titers”.

On to `O=P([O-])([O-])C(CCCc1cccc(Oc2ccccc2)c1)S(=O)(=O)[O-].[K+].[K+].[K+]` (stereo not drawn) [TH-Z66, reference compound], for which the “IgG antibody titer vs control group” value in test [1] (7 days after immunization) is “lower than those in mice in the control group”. Moreover, the adjuvant effect entry in test [1] (SQS inhibitor) is recorded as “does not have an adjuvant effect”. Moreover, the “IgG and IgM antibody titers vs PBS control” value in test [1] (SQS inhibitor 100 μg with OVA, sole) is listed as “did not differ significantly”.

Consider `O=P(O)(O)C(Nc1cc(OCc2ccccc2)ccn1)P(=O)(O)O` [TH-Z106], for which the negative-log IC50 (pIC50) in test [2] (setting [5]) was 6.97.

For `CC[C@H](C)C(=O)O[C@H]1C[C@@H](C)C=C2C=C[C@H](C)[C@H](CC[C@@H]3C[C@@H](O)CC(=O)O3)[C@H]21` [lovastatin, reference compound], in test [1], the “adjuvant effect among statin drugs” value was “most significant adjuvant effects”; the “IgM and IgG antibody titers vs PBS or DMSO control” value is “significantly higher titers”.

For the compound `CCCCCOc1ccc2c(c1)ncn2CC(O)(P(=O)(O)O)P(=O)(O)O` [TH-Z151], the figures for the IC50 in test [2], in test [3] and in test [4] were 0.12 µM, 1.25 µM and 0.46 µM, respectively. The pIC50 in test [2] (setting [6]) is 6.92; in the test with MDA-MB-231 cells, 3.39.

Turning to `COc1ccc2c(c1)ncn2CC(O)(P(=O)(O)O)P(=O)(O)O` [TH-Z79], the figures for the IC50 in test [2], in test [3] and in test [4] were 0.1 to 0.3 µM, 0.96 µM and 0.61 µM, respectively. The figures for the pIC50 (in test [2] (setting [6]); with MDA-MB-231 cells) were 6.52 to 7.00 and 4.29, respectively.

On to `O=P(O)(O)C(Nc1cc(-n2cc3c(n2)CCCC3)ccn1)P(=O)(O)O` [TH-Z108], for which the pIC50 in test [2] (setting [5]) is 6.95.

For the compound `O=P(O)(O)C(O)(Cn1cnc2cc(OCl)ccc21)P(=O)(O)O` [II-7], the IC50 in test [2] was 0.16 µM; in test [3] it was 0.69 µM; in test [4], 0.82 µM.

On to `CCCCCCCCCCCCOc1ccc2c(c1)ncn2CC(O)(P(=O)(O)O)P(=O)(O)O` [TH-Z154], for which the IC50 in test [2] is over 5 µM; in test [3] it was 0.75 µM; in test [4], 5.16 µM. The pIC50 in test [2] (setting [6]) is under 5.30.

Usually pIC50 stands for −log10 of the IC50, conventionally taken in molar units.

Source of the values: patent US20250367283A1, “MEVALONATE PATHWAY INHIBITOR AS HIGHLY-EFFICIENT VACCINE ADJUVANT” (Tsinghua University, priority 2015, published 2025).
